# Laboratory results reported in patent publication US10294248B2, “Beta-lactamase inhibitors” (VenatoRx Pharmaceuticals, Inc., priority 2013, dated 2019).
# Legend:
# [1] = tested on: K. pneumoniae 156319 expressing KPC-3; experiment: Broth microdilution MIC, K. pneumoniae 156319 KPC-3; type: cell-based; conditions: fixed 4 μg/mL meropenem; CAMHB, 16-20 hours at 37° C.
# Summary of the method: (§1)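 Following CLSI broth microdilution, β-lactamase-producing strains grown 3–5 h were exposed in CAMHB to 2-fold dilutions of test compound (32 to 0.25 μg/mL final). A static 4 μg/mL β-lactam overlay was added. After 16–20 h at 37° C, MIC was scored by eye.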
# [2] = tested on: P. aeruginosa Ps296 expressing VIM-2; experiment: Broth microdilution MIC, P. aeruginosa Ps296 VIM-2; type: cell-based; conditions: fixed 4 μg/mL meropenem; CAMHB, 16-20 hours at 37° C.
# Summary of the method: as §1
# [3] = tested on: K. pneumoniae A-1797 expressing KPC-2 and VIM-4; experiment: Broth microdilution MIC, K. pneumoniae A-1797 KPC-2/VIM-4; type: cell-based; conditions: fixed 4 μg/mL meropenem; CAMHB, 16-20 hours at 37° C.
# Summary of the method: as §1
# [4] = biological target: T1, OXA-1 β-lactamase (Class D oxacillinase) (Escherichia coli, UniProt P13661); experiment: β-Lactamase inhibition, OXA-1; type: biochemical; conditions: nitrocefin 100 μM, 486 nm; 15 min preincubation at 37° C., PBS pH 7.4
# T1 construct: made in house; host or cells: E. coli BL21(DE3)
# Summary of the method: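 Compounds are mixed with purified, untagged recombinant β-lactamase and held 15 min at 37 °C. Substrate is then added: nitrocefin (100 μM final) for OXA-1, imipenem for KPC-2, cefotaxime for SHV-5. Absorbance is followed immediately, and percent inhibition per concentration gives the IC50.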
# [5] = biological target: T2, KPC-2 β-lactamase (Class A carbapenemase) (Klebsiella pneumoniae, UniProt Q9F663); experiment: β-Lactamase inhibition, KPC-2; type: biochemical; conditions: imipenem substrate, 300 nm; 15 min preincubation at 37° C., PBS pH 7.4
# T2 construct: made in house; host or cells: E. coli BL21(DE3)
# Summary of the method: (§2)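 IC50 is the inhibitor level cutting initial substrate hydrolysis rate by 50% relative to no-inhibitor controls, after 15 min enzyme–inhibitor preincubation at 37 °C. KPC-2 read with imipenem at 300 nm, SHV-5 with cefotaxime at 260 nm; enzymes were untagged, E. coli-expressed, chromatographically purified.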
# [6] = tested on: S. aureus MSSA-7 producing penicillinase PC-1; experiment: Broth microdilution MIC, S. aureus MSSA-7 PC-1; type: cell-based; conditions: fixed 4 μg/mL piperacillin; CAMHB, 16-20 hours at 37° C.
# Summary of the method: as §1
# [7] = tested on: E. cloacae 144200 expressing Class C P99 AmpC; experiment: Broth microdilution MIC, E. cloacae 144200 p99 AmpC; type: cell-based; conditions: fixed 4 μg/mL ceftazidime; CAMHB, 16-20 hours at 37° C.
# Summary of the method: as §1
# [8] = biological target: T3, p99 AmpC β-lactamase (Class C) (Enterobacter cloacae, UniProt P05364); experiment: β-Lactamase inhibition, p99 AmpC; type: biochemical
# T3 construct: made in house; host or cells: E. coli BL21(DE3)
# [9] = biological target: T4, VIM-2 metallo-β-lactamase (Class B) (Pseudomonas aeruginosa, UniProt Q9K2N0); experiment: β-Lactamase inhibition, VIM-2; type: biochemical; conditions: nitrocefin 100 μM, 486 nm; 15 min preincubation at 37° C., PBS pH 7.4
# T4 construct: made in house; host or cells: E. coli BL21(DE3)
# Summary of the method: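 Nitrocefin hydrolysis (100 μM final, A486 read for 10 min) by purified VIM-2 after a 15-min, 37° C enzyme–inhibitor preincubation. IC50 is the concentration halving initial hydrolysis rate, derived from percent inhibition against no-inhibitor wells.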
# [10] = biological target: T5, SHV-5 β-lactamase (Class A ESBL) (Klebsiella pneumoniae, UniProt P0A3M1); experiment: β-Lactamase inhibition, SHV-5; type: biochemical
# T5 construct: made in house; host or cells: E. coli BL21(DE3)
# Summary of the method: as §2
# [11] = tested on: E. coli ESBL4 expressing CTX-M-15; experiment: Broth microdilution MIC, E. coli ESBL4 CTX-M-15; type: cell-based; conditions: fixed 4 μg/mL ceftazidime; CAMHB, 16-20 hours at 37° C.
# Summary of the method: as §1
# T1 sequence (P13661 26-276): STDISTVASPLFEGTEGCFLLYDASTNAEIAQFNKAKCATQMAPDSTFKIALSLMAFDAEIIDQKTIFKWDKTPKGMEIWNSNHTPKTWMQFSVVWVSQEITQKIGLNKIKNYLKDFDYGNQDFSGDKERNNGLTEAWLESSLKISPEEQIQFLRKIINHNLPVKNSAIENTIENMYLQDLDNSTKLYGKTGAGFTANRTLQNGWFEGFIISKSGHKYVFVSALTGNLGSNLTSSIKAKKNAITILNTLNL
# T2 sequence (Q9F663 25-293, looked up): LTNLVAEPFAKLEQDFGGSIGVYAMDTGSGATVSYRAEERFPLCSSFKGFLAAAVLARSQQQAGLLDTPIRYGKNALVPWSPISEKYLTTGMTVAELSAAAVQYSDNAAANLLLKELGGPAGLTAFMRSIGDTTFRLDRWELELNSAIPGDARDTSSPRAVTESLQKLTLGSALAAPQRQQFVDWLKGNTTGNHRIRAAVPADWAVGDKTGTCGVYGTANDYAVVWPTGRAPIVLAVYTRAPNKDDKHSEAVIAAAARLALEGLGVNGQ
# T3 sequence (P05364 21-381): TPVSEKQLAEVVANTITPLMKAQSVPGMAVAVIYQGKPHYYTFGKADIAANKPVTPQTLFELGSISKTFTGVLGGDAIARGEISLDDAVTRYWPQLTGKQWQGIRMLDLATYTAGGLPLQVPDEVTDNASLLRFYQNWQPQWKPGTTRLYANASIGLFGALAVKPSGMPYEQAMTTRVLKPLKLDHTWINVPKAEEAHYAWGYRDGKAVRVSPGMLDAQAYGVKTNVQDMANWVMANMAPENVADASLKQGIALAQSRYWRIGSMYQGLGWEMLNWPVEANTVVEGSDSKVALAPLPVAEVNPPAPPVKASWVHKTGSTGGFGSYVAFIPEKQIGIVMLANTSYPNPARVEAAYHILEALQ
# T5 sequence (P0A3M1 22-286): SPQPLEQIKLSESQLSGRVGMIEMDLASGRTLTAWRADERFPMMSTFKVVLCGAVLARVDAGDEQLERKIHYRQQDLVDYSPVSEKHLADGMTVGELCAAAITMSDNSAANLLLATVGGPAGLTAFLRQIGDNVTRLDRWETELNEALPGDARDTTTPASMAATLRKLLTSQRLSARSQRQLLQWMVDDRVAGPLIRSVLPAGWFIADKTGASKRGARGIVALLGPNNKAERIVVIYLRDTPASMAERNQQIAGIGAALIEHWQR
Compound,"MIC of example compound in presence of fixed β-lactam: Fixed Mero, K. P. 156319 KPC-3 [1]","MIC of example compound in presence of fixed β-lactam: Fixed Mero, P. aerug. Ps296 VIM-2 [2]","MIC of example compound in presence of fixed β-lactam: Fixed Mero, K. P. A-1797 KPC-2 VIM-4 [3]",IC50 [4] [nM],IC50 [5] [nM],"MIC of example compound in presence of fixed β-lactam: Fixed Pip, S. aureus MSSA-7 PC-1 [6]","MIC of example compound in presence of fixed β-lactam: Fixed CAZ, E. cl. 144200 p99 AmpC [7]",IC50 [8] [nM],IC50 [9] [nM],IC50 [10] [nM],"MIC of example compound in presence of fixed β-lactam: Fixed CAZ, E. coli ESBL4 CTX-M-15 [11]"
"NC1CCN(CCC(=O)N[C@H]2Cc3cccc(C(=O)O)c3OB2O)CC1 [Example 22, 3-[3-(4-Amino-piperidin-1-yl)-propionylamino]-2-hydroxy-3,4-dihydro-2H-benzo[e][1,2]oxaborinine-8-carboxylic acid]",B (the MIC in the presence of between 8 and 32 μg/mL of a β-lactamase inhibitor),A (an MIC of the fixed β-lactam antibiotic in the presence of >32 μg/mL of a β-lactamase inhibitor),A (an MIC of the fixed β-lactam antibiotic in the presence of >32 μg/mL of a β-lactamase inhibitor),100 to 1000,100 to 1000,C (the MIC in the presence of <4 μg/mL of a β-lactamase inhibitor),C (the MIC in the presence of <4 μg/mL of a β-lactamase inhibitor),< 100,1000 to 10000,100 to 1000,C (the MIC in the presence of <4 μg/mL of a β-lactamase inhibitor)
"CNC1CCN(CC(=O)N[C@H]2Cc3cccc(C(=O)O)c3OB2O)CC1 [Example 14, 2-Hydroxy-3-[2-(4-methylamino-piperidin-1-yl)-acetylamino]-3,4-dihydro-2H-benzo[e][1,2]oxaborinine-8-carboxylic acid]",C (the MIC in the presence of <4 μg/mL of a β-lactamase inhibitor),B (the MIC in the presence of between 8 and 32 μg/mL of a β-lactamase inhibitor),B (the MIC in the presence of between 8 and 32 μg/mL of a β-lactamase inhibitor),100 to 1000,100 to 1000,C (the MIC in the presence of <4 μg/mL of a β-lactamase inhibitor),C (the MIC in the presence of <4 μg/mL of a β-lactamase inhibitor),< 100,1000 to 10000,100 to 1000,C (the MIC in the presence of <4 μg/mL of a β-lactamase inhibitor)
"NCCN1CCC(CCC(=O)N[C@H]2Cc3cccc(C(=O)O)c3OB2O)CC1 [Example 31, 3-{3-[1-(2-Amino-ethyl)-piperidin-4-yl]-propionylamino}-2-hydroxy-3,4-dihydro-2H-benzo[e][1,2]oxaborinine-8-carboxylic acid]",C (the MIC in the presence of <4 μg/mL of a β-lactamase inhibitor),C (the MIC in the presence of <4 μg/mL of a β-lactamase inhibitor),B (the MIC in the presence of between 8 and 32 μg/mL of a β-lactamase inhibitor),< 100,< 100,C (the MIC in the presence of <4 μg/mL of a β-lactamase inhibitor),C (the MIC in the presence of <4 μg/mL of a β-lactamase inhibitor),< 100,1000 to 10000,100 to 1000,C (the MIC in the presence of <4 μg/mL of a β-lactamase inhibitor)
"CN(C)CCN1CCN(CC(=O)N[C@H]2Cc3cccc(C(=O)O)c3OB2O)CC1 [Example 3, 3-{2-[4-(2-Dimethylamino-ethyl)-piperazin-1-yl]-acetylamino}-2-hydroxy-3,4-dihydro-2H-benzo[e][1,2]oxaborinine-8-carboxylic acid]",C (the MIC in the presence of <4 μg/mL of a β-lactamase inhibitor),C (the MIC in the presence of <4 μg/mL of a β-lactamase inhibitor),B (the MIC in the presence of between 8 and 32 μg/mL of a β-lactamase inhibitor),100 to 1000,< 100,C (the MIC in the presence of <4 μg/mL of a β-lactamase inhibitor),C (the MIC in the presence of <4 μg/mL of a β-lactamase inhibitor),< 100,1000 to 10000,< 100,C (the MIC in the presence of <4 μg/mL of a β-lactamase inhibitor)
"CN1CCC(CC(=O)N[C@H]2Cc3cccc(C(=O)O)c3OB2O)CC1 [Example 45, 2-Hydroxy-3-[2-(1-methyl-piperidin-4-yl)-acetylamino]-3,4-dihydro-2H-benzo[e][1,2]oxaborinine-8-carboxylic acid]",C (the MIC in the presence of <4 μg/mL of a β-lactamase inhibitor),C (the MIC in the presence of <4 μg/mL of a β-lactamase inhibitor),C (the MIC in the presence of <4 μg/mL of a β-lactamase inhibitor),100 to 1000,< 100,B (the MIC in the presence of between 8 and 32 μg/mL of a β-lactamase inhibitor),C (the MIC in the presence of <4 μg/mL of a β-lactamase inhibitor),< 100,100 to 1000,< 100,C (the MIC in the presence of <4 μg/mL of a β-lactamase inhibitor)
"O=C(O)c1cccc2c1OB(O)[C@@H](NC(=O)C1CCNCC1)C2 [Example 44, 2-Hydroxy-3-[(piperidine-4-carbonyl)-amino]-3,4-dihydro-2H-benzo[e][1,2]oxaborinine-8-carboxylic acid]",C (the MIC in the presence of <4 μg/mL of a β-lactamase inhibitor),A (an MIC of the fixed β-lactam antibiotic in the presence of >32 μg/mL of a β-lactamase inhibitor),A (an MIC of the fixed β-lactam antibiotic in the presence of >32 μg/mL of a β-lactamase inhibitor),< 100,< 100,C (the MIC in the presence of <4 μg/mL of a β-lactamase inhibitor),C (the MIC in the presence of <4 μg/mL of a β-lactamase inhibitor),< 100,10000 to 100000,< 100,C (the MIC in the presence of <4 μg/mL of a β-lactamase inhibitor)
"NCCN1CCC(CC(=O)N[C@H]2Cc3cccc(C(=O)O)c3OB2O)CC1 [Example 41, 3-{2-[1-(2-Amino-ethyl)-piperidin-4-yl]-acetylamino}-2-hydroxy-3,4-dihydro-2H-benzo[e][1,2]oxaborinine-8-carboxylic acid]",C (the MIC in the presence of <4 μg/mL of a β-lactamase inhibitor),C (the MIC in the presence of <4 μg/mL of a β-lactamase inhibitor),C (the MIC in the presence of <4 μg/mL of a β-lactamase inhibitor),< 100,< 100,C (the MIC in the presence of <4 μg/mL of a β-lactamase inhibitor),C (the MIC in the presence of <4 μg/mL of a β-lactamase inhibitor),< 100,100 to 1000,< 100,C (the MIC in the presence of <4 μg/mL of a β-lactamase inhibitor)
